Assay [1] concerns the target T1, Toll-like receptor 8 (Homo sapiens, UniProt Q9NR97).
T1 sequence (Q9NR97 whole entry): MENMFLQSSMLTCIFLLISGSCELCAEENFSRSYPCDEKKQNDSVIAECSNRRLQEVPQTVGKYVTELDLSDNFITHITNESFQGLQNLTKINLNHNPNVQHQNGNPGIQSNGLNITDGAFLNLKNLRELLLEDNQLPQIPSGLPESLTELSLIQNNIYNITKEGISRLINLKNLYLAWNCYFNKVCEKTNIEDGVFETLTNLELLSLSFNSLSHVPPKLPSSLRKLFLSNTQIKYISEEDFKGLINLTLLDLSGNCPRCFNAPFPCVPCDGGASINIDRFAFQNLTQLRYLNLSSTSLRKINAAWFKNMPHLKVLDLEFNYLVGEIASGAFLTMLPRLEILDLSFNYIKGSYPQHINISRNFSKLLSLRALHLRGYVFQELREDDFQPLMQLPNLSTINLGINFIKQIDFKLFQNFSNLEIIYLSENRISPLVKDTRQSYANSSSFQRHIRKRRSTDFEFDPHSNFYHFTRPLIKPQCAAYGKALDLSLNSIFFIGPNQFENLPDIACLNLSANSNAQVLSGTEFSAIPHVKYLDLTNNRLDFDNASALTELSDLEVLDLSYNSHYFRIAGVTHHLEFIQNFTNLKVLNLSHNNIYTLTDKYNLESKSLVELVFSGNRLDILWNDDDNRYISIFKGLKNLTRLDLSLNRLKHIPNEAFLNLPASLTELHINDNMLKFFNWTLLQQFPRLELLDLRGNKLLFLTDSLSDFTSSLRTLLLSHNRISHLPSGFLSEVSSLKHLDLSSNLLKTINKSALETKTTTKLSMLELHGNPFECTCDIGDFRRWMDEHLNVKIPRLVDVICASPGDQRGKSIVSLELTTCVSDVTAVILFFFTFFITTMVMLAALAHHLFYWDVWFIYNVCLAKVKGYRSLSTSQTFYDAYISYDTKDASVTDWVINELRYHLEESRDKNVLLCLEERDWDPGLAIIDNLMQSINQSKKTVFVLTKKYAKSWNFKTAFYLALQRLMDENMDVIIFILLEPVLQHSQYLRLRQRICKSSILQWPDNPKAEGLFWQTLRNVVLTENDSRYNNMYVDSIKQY
Kind of assay: (§1) Agonist activity at human TLR8.

The test system of a further assay is B16. Kind of assay: Antitumor activity against mouse B16 cells xenografted in mouse assessed as inhibition of tumor growth at 2 mg measured after 3 days. The following applies: time 3 day. On the set-up: scale not given: the % may be the effect or the level left. The format is functional.
The target in assay [2] is T1, Toll-like receptor 8. Kind of assay: Agonist activity in TLR8 (unknown origin) expressed in HEK293 cells assessed as induction of NF-kappa activation. The format is cell-based.
The target of assay [3] is T1, Toll-like receptor 8. Put plainly: Agonist activity at human TLR8 transfected in HEK-Blue hTLR8 cells. The format is cell-based.
In the next assay the target is T2, Toll-like receptor 7 (Homo sapiens, UniProt Q9NYK1).
T2 sequence (Q9NYK1 whole entry): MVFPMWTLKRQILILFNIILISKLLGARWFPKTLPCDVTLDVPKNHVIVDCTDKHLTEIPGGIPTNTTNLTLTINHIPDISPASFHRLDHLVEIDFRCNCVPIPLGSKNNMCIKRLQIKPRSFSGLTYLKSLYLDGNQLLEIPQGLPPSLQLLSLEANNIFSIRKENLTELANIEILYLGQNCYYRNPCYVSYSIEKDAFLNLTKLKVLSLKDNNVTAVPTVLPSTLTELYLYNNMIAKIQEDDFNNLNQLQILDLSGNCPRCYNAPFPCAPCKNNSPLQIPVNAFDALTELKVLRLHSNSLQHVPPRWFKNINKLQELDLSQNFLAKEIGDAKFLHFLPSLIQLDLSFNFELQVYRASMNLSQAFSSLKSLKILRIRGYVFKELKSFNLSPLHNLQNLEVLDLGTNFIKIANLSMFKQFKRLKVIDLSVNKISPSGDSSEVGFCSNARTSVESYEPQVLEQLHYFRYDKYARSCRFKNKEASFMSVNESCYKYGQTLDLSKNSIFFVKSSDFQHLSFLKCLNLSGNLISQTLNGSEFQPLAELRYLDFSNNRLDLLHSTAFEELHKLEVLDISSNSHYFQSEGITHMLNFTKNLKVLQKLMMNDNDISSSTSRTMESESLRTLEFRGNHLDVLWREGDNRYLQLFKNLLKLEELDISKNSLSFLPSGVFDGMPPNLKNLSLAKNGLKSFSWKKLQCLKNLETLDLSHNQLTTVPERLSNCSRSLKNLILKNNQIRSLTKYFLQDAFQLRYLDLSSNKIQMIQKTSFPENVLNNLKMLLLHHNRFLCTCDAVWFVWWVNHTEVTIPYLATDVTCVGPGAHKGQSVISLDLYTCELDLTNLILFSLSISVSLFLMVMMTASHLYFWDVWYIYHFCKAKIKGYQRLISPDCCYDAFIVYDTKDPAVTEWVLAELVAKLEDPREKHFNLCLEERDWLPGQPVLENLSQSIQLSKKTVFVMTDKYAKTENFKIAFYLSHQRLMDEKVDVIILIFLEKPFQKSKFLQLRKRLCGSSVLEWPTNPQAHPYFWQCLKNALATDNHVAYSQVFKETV
Kind of assay: Agonist activity at human TLR7 transfected in HEK-Blue hTLR7 cells. The assay is classed as cell-based.

For assay [4], the target named is T3, Toll-like receptor 8 (Homo sapiens) (UniProt Q9NR97).
T3 sequence (whole entry): T1 sequence (Q9NR97 whole entry)
The assay is described as §1. The following applies: filed as agonist.

Assay [5] can be described thus: Binding affinity to RasGAP (unknown origin) by surface plasmon resonance assay. On the set-up: species or system Homo sapiens.
Assay [6] deals with Mitogen-activated protein kinase 3 (Homo sapiens, UniProt P27361). Kind of assay: Binding affinity to ERK1 (unknown origin) by surface plasmon resonance assay. (SPR reads the build-up and loss of mass on a sensor chip optically.)
Mitogen-activated protein kinase 3, sequence (P27361 whole entry): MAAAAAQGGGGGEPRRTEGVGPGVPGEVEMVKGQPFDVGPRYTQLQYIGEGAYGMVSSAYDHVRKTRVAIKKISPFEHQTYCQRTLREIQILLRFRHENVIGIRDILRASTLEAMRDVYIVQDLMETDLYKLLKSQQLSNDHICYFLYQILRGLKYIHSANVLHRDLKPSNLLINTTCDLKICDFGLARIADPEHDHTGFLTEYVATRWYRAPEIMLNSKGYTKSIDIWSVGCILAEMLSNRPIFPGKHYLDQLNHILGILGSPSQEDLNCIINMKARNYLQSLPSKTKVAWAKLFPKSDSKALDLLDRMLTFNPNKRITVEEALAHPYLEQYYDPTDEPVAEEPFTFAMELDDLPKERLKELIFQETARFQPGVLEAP
For another assay, the system named is Mus musculus. Put plainly: Potency index ratio of imiquimod MED to test compound MED for induction of IFN in po dosed mouse assessed as minimum effective dose. The assay is classed as functional.
A further assay relates to Hepatitis C virus. Kind of assay: Antiviral activity against HCV infected in human Huh-7 cells assessed as reduction in HCV level at 1 to 10 uM measured after 24 h by real-time PCR method. On the set-up: scale not given: the % may be the effect or the level left. To be noted: dose 1-10 µM. On the technique in general: In qPCR the cycle at which signal appears reflects the starting amount.

We go through six molecules from ChEMBL document CHEMBL5233237, “Agonist and antagonist ligands of toll-like receptors 7 and 8: Ingenious tools for therapeutic purposes” (Eur J Med Chem, 2020).

The term EC50 denotes the concentration giving half of the maximal effect. At Toll-like receptor 8 [1], `CCCCc1nc2c(N)nc3ccccc3c2s1` gave an EC50 of 200 nM.
As to `C=CCn1c(=O)n([C@@H]2O[C@H](CO)[C@@H](O)[C@H]2O)c2nc(N)[nH]c(=O)c21` [LOXORIBINE], the Activity in the assay on B16 was found to be 96%.
As to `CCOC(=O)C1=Cc2ccc(-c3cccc(C#N)c3)cc2N=C(N)C1`, the EC50 worked out at 30 nM at Toll-like receptor 8 [2], 30 nM at Toll-like receptor 8 [3] and 15 µM on Toll-like receptor 7.
In the case of `CCCCc1nc2c(N)nc3cc(C(=O)OC)ccc3c2n1CCCCCN`, the concentration giving a half-maximal response (EC50) in [4] was found to be 1.6 µM.
The term Kd denotes a measure of binding affinity in units of concentration. In the case of `Cc1cc(Nc2ncc3c(n2)N(C)C(=O)N(c2cc(NC(=O)c4cccc(C(F)(F)F)c4)ccc2C)C3)n(C)n1`, the Kd turned out to be 212 nM in assay [5] and 98 nM in assay [6].
For the molecule `COCCOc1nc(N)c2[nH]c(=O)n(Cc3ccccc3)c2n1`, the Ratio in the assay with Mus musculus is 100. The Activity with Hepatitis C virus stood at 60%.
